Assay results reported in patent US11123340B2, “Small-molecule UT-A-selective urea transport inhibitors” (The Regents of the University of California, priority 2014, dated 2021).
Values after ≈ are worked out from the molar mass of the structure shown. Like-named read-outs stand apart in the source and are kept apart here.

Experiments:
[1] = target: T1, UT-A1 (Rattus norvegicus, UniProt Q62668); assay: Transepithelial urea transport in UT-A1-expressing MDCK cells on porous filters; assay type: cell-based; conditions: 3 μM inhibitor, forskolin 10 μM
T1 construct: expressed in transfected cells; host or cells: MDCK cells
T1 sequence (Q62668 1-929): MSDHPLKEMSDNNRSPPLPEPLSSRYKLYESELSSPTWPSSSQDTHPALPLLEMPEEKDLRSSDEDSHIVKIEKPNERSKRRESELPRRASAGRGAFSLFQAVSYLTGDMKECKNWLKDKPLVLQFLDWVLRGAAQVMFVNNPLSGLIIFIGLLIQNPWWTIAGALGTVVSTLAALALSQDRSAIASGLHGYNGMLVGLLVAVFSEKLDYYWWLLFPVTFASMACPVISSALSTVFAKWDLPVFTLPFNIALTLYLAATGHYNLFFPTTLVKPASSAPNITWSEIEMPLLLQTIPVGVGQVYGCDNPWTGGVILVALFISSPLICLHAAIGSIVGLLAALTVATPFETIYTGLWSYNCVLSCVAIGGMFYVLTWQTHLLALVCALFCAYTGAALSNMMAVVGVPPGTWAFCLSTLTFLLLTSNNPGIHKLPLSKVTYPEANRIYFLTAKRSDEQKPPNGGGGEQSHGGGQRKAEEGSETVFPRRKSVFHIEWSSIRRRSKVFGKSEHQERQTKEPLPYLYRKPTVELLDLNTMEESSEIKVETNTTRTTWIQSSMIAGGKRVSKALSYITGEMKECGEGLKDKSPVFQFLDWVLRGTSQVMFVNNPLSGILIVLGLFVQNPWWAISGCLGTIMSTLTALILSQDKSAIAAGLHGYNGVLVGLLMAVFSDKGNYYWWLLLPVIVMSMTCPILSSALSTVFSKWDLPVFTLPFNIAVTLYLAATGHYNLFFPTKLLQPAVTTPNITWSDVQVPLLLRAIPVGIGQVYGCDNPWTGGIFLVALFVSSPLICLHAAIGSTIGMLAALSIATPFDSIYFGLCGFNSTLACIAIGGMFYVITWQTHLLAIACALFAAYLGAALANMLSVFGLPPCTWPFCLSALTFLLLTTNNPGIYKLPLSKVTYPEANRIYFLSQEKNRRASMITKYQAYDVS
Method: UT-A1 expressing MDCK cells were grown on 12-mm diameter collagen-coated Transwell inserts (0.4 μm pore size; Costar, Costar, N.Y.) to form tight monolayers (resistance>500 Ωcm^2), as described (see, e.g., Levin et al. (2007) FASEB J. 21, 551-563). Urea flux in the basolateral-to-apical direction was measured in response to a 15 mM urea gradient in which PBS containing forskolin (10 μM), with or without UT-A1 inhibitor and 0.7 mM phloretin, was added to both the apical-facing (0.2 mL) and basal-facing (2 mL) surfaces. After 30 min the basal-facing solution was replaced by PBS containing test compound+15 mM urea. Apical fluid samples (5 μL) were collected at specified times for enzymatic assay of urea (QUANTICHROME Urea Assay Kit; BioAssay Systems, Hayward, Calif.). To measure inhibitor permeability across MDCK cell layers, compounds (20 μM) were added on the basal-facing surface and fluid samples (20 μL) from the apical-facing surface were collected at different time points and analyzed by LC/MS.
Transepithelial urea transport from the basolateral to the apical solution was measured by enzymatic assay of urea in the apical solution following urea addition to the basal-facing solution.

[2] = system: multiple anion (CFTR, calcium-activated chloride channels) and cation (K+, Na+) channels; assay: Short-circuit current in MDCK cells (ion channel off-target effects); assay type: cell-based, canine; conditions: 20 μM inhibitor, forskolin and ATP
Method: MDCK cells on black 96-well Costar microplates with clear plastic bottoms were cultured for 24 h at 37° C. and incubated with test compounds (0 to 25 μM) for 24 h. Cell viability was assayed using AlamarBlue (Pierce, Rockford, Ill.) in which the reagent was added to each well, incubated for 30 min, and absorbance measured at 590 nm. For short-circuit current measurement, snapwell inserts containing MDCK cells were mounted on Ussing chambers. Test compounds (20 μM) were incubated with MDCK cells at both apical and basolateral sides for 10 min at 37° C. prior to addition of 20 μM forskolin and then 100 μM ATP. The apical and basolateral chambers contained identical solutions: 120 mM NaCl, 5 mM KCl, 1 mM MgCl2, 1 mM CaCl2, 5 mM HEPES, 25 mM NaHCO3 and 10 mM glucose. Solutions were bubbled with 5% CO2/95% O2 and maintained at 37° C. […]
(§1) Compound toxicity was evaluated by compound incubation for 24 h with MDCK cell cultures followed by Alamar blue assay. […] To assess potential ion channel off-target effects, short-circuit current was measured in MDCK cells in response to cAMP (forskolin) and calcium (ATP) agonists (FIG. 5C, right), which depends on the actions of multiple anion (CFTR, calcium-activated chloride channels) and cation (K^+, Na^+) channels.

[3] = Pharmacokinetics in rats; assay type: in vivo; conditions: rat; for half-life: plasma, read-out: plasma elimination t1/2 (converted)
Method: UTAinh-E02 or UTAinh-F11 was administered at 20 mg/kg intravenously by tail vein to rats. UTAinh-E02 was formulated as a 5 mg/mL saline solution containing 20% dimethylacetamide and 40% 2-hydroxypropyl γ-cyclodextrin; UTAinh-F11 was formulated as a 5 mg/mL saline solution containing 20% dimethylacetamide and 0.6 mg/mL NaOH. Blood samples were collected from the tail vein into K3EDTA mini collecting tubes (Greiner, Kremsmunster, Austria) at specified time points. Plasma samples were separated by centrifugation and kept frozen at −20 OC until analysis. Urine samples were also collected. Calibration standards were prepared in urine and plasma from control (non-treated) rats to which known amounts of UTAinh-E02 or UTAinh-F11 were added. The mixture was centrifuged for 20 min at 13,200 rpm and 90 μL of supernatant was taken for LC/MS. The solvent system consisted of a linear gradient from 5% to 95% acetonitrile containing 0.1% formic acid over 16 min (0.2 mL/min flow). Mass spectra was acquired on a mass spectrometer (Waters 2695+micromass ZQ; Waters) using electrospray (+) ionization, mass ranging from 100 to 1500 Da, 40-V cone voltage.
(§2) Several vehicles and administration routes were tested in order to give predicted therapeutic inhibitor concentrations in blood and urine. […] Because of the alkaline pH of the administered compounds the vehicle control for UTAinh-F11 was 20% dimethylacetamide and 1.2 mg/mL NaHCO3 in saline to give identical pH. […] Urine levels of UTAinh-F11 were >3 μM over 6 h.

[4] = Solubility; assay type: physicochemical
Method: as §2, §1

[5] = intraperitoneal, subcutaneous or oral, up to 100 mg/kg

With `CC(=O)Nc1ccc(-c2csc(-c3c[nH]c4ccccc34)n2)cc1` [UTA1inh-E02, N-(4-(2-(1H-indol-3-yl)thiazol-4-yl)phenyl)acetamide] as the compound, how does the “inhibition of transepithelial urea transport” value [1] read?
The value was roughly 50%.

What about the short-circuit current [2] of the same compound?
The short-circuit current was “Neither inhibitor at 20 μM altered short-circuit current”.

And the half-life ([3]; intravenous 20 mg/kg)?
Its half-life is roughly 4.5 h.

And the plasma concentration [3, 5]?
Its plasma concentration is less than 1 µM.

And the urine concentration [3, 5]?
Its urine concentration is less than 1 µM.

And the plasma level initially ([3]; intravenous 20 mg/kg)?
The plasma level initially was roughly 6 µM.

And the urine level initially ([3]; intravenous 20 mg/kg)?
The urine level initially was roughly 3 µM.

And the solubility ([4]; in words, vehicle selection)?
The solubility was “limited solubility”.

And the solubility ([4]; read-out: solubility limit)?
Its solubility is roughly 25 µM (≈ 8.34 µg/mL).

With `COc1ccc(C)cc1S(=O)(=O)Nc1ccc(Cl)c(N2CCCS2(=O)=O)c1` [UTA1inh-F11, N-[4-Chloro-3-(1,1-dioxido-1,2-thiazolidin-2-yl)phenyl]-2-methoxy-5-methylbenzene-sulfonamide] as the compound, how does the “inhibition of transepithelial urea transport” value [1] read?
Its value is roughly 50%.

What about the short-circuit current [2] of the same compound?
Its short-circuit current is “Neither inhibitor at 20 μM altered short-circuit current”.

And the half-life ([3]; intravenous 20 mg/kg)?
Its half-life is roughly 1 h.

What about the plasma level initially ([3]; intravenous 20 mg/kg) of the same compound?
Its plasma level initially is “higher initial plasma levels than UTAinh-E02”.

And the “urine levels over 6 h” value ([3]; intravenous 20 mg/kg)?
The value was greater than 3 µM.

And the solubility ([4]; in words, vehicle selection)?
The solubility was “dissolved well in 20% dimethylacetamide, 0.6 mg/mL NaOH in saline”.

And the solubility ([4]; read-out: solubility limit)?
Its solubility is roughly 25 µM (≈ 10.8 µg/mL).
